Measurements as given in EP0612246B1, “PHARMACEUTICAL COMPOSITIONS OF GALLIUM COMPLEXES OF 3-HYDROXY-4-PYRONES” (BERNSTEIN, Lawrence Richard, priority 1991, dated 1993).

Columns and labels:
[1] = Oral bioavailability study in rabbits: serum gallium by graphite furnace atomic absorption after oral gavage; format: in vivo, New Zealand white rabbits; conditions: for Mean gallium content of rabbit serum: 10 mg elemental gallium per kg, fasted 18 hours, 3 animals
Protocol: A test of the oral bioavailability of the 3:1 ethyl maltol:gallium complex in rabbits was conducted. In this test, the complex was given to rabbits and compared to a solution of gallium nitrate. Six female New Zealand white rabbits weighing between 2.68 and 2.91 kg were used, and were not fed for 18 hours before starting the experiment. A suspension of the 3:1 gallium ethyl maltol complex in double distilled water was prepared with a concentration of 10 mg elemental gallium per 4 ml of suspension. […] A small amount of solid sodium carbonate was added to the latter solution to bring the pH up to about 6. Each of the two solutions was given to three rabbits by oral gavage (through a tube inserted through the mouth to the stomach) in the amount of 4 ml per kg of body weight. The stomach tubes were flushed by three ml of water following administration of the solutions.
Six ml of blood was taken from each rabbit at 1 hour, 2 hours, 4 hours, 8 hours, and 24 hours following administration of the solutions, and the serum separated and frozen. Control samples of blood were taken 24 hours earlier. The frozen serum samples were then sent to an independent testing laboratory for determination of the gallium contents by graphite furnace atomic absorption analysis. The testing laboratory received numbered serum samples, and never had any knowledge of the experimental conditions used to produce the samples. Due to uncertainties in the analytical procedures for gallium in serum, the relative proportions of gallium in the serum samples are considered more significant than the actual reported concentrations.
It is important to note that no attempt was made to counteract the adverse effects of the 3:1 gallium ethyl maltol complex being exposed to the acidic conditions of the stomach. This study should therefore be considered to give a minimal value for the oral bioavailability of the gallium ethyl maltol complex compared to gallium nitrate.

[2] = format: physicochemical
Protocol: The stability of the neutral 3:1 maltol:gallium complex was studied in aqueous solutions at various pH values. The complex was studied at two concentrations in double distilled deionized water: 2.5 X 10^-6 M and 1.0 X 10^-2 M. The pH was adjusted by adding either 1N HCl or 1N Na2CO3. The stability of the complex was determined using ultraviolet spectroscopy over the region 200-450 nm at 25°C. Several absorption peaks are observed in this range, including those at about 212-217 nm, 248 nm, 273 nm, 318 nm, and 385 nm. An isobesic point occurs over much of the pH range at about 290 nm. In the very dilute solutions (2.5 X 10^-6 M), the neutral 3:1 complex appears to be stable from about pH 4.5 to 9.5. For the less dilute solutions (1.0 X 10^-2 M), the determination was more difficult due to the very high absorbance.

In the case of gallium nitrate, the “Mean gallium content of rabbit serum” value ([1]; 1 hour after oral gavage) is reported as 51 ng/mL, the “Mean gallium content of rabbit serum” value ([1]; 2 hours after oral gavage) is reported as 99 ng/mL and the “Mean gallium content of rabbit serum” value ([1]; 4 hours after oral gavage) is reported as 118 ng/mL. The “Mean gallium content of rabbit serum” value ([1]; 8 hours after oral gavage) was 103 ng/mL and the “Mean gallium content of rabbit serum” value ([1]; 24 hours after oral gavage) was 64 ng/mL.
In the case of `Cc1occc(=O)c1[O-].Cc1occc(=O)c1[O-].Cc1occc(=O)c1[O-].[Ga+3]` [gallium maltol], the “stability region (pH)” value [2] is reported as “very similar to that of the highly dilute solution, possibly slightly wider”.
In the case of `CCc1occc(=O)c1[O][Ga]([O]c1c(CC)occc1=O)[O]c1c(CC)occc1=O` [gallium ethyl maltol], the “absorption compared to gallium nitrate of equal volume and gallium concentration” value ([1]; rabbit, in vivo, po) is reported as “significantly higher amounts”.
